This note sets out measurements from patent publication US10111435B2, “Herbicidal compositions containing N-(1,3,4-oxadiazol-2-yl)-aryl carboxylic acid amides” (BAYER CROPSCIENCE AKTIENGESELLSCHAFT, priority 2013, dated 2018).

What all share (assay type): in vivo
Assay [1] relates to Avena fatua (AVEFA). Kind of assay: greenhouse post-emergence herbicidal efficacy against AVEFA. As for the experimental part:
(§1) All trials whose results are shown were conducted in a greenhouse by the methodology specified below. The effect of the inventive herbicidal compositions was examined on the following harmful plants 14 and 21 days after application:
(§2) Echinochloa crus-galli (ECHCG), Eleusine indica (ELEIN), Setaria viridis (SETVI), Amaranthus retroflexus (AMARE), Chenopodium album (CHEAL), Kochia scoparia (KCHSC), Solanum nigrum (SOLNI), Avena fatua (AVEFA), Bromus sterilis (BROST), Lolium multiflorum (LOLMU), Phalaris minor (PHAMI), Poa annua (POAAN), Galium aparine (GALAP), Matricaria inodora (MATIN) and Polygonum convolvulus (POLCO).
(§3) The harmful plant seeds were sown in pots (diameter 8 cm) with sandy loam soil and germinated under optimal conditions. The inventive herbicidal compositions or the active ingredients alone were applied post-emergence to the planted pots with a spray volume of 300 L/ha. The trial was conducted in a greenhouse under optimum growth conditions. The herbicidal effects were assessed visually by comparison of untreated and treated plants. The percentages mean: 0%=no effects, 100%=the plants die off completely).
(§4) The abbreviations mean: • a.i.=active ingredient • E^C=expected value according to Colby (E^C=A+B−A×B/100) • Diff: =difference (%) of measured value from expected value (%) (measured value minus expected value)
(§5) Assessment: • measured value E is greater than E^C:->synergism (+ diff.) • measured value E equals E^C:->additive effect • measured value E is smaller than E^C:->antagonism(− diff.)

Assay [2] concerns Bromus sterilis (BROST). Kind of assay: greenhouse post-emergence herbicidal efficacy against BROST. The procedure:
as §1, §2, §3, §4, §5

The test system of assay [3] is Lolium multiflorum (LOLMU). In words: greenhouse post-emergence herbicidal efficacy against LOLMU. As for the experimental part:
as §1, §2, §3, §4, §5

Assay [4] deals with Phalaris minor (PHAMI). In words: greenhouse post-emergence herbicidal efficacy against PHAMI. The procedure:
as §1, §2, §3, §4, §5

Assay [5] relates to Poa annua (POAAN). In words: greenhouse post-emergence herbicidal efficacy against POAAN. As for the experimental part: as §1, §2, §3, §4, §5
The subject of assay [6] is Matricaria inodora (MATIN). Kind of assay: greenhouse post-emergence herbicidal efficacy against MATIN. The procedure:
as §1, §2, §3, §4, §5

Assay [7] deals with Polygonum convolvulus (POLCO). Kind of assay: greenhouse post-emergence herbicidal efficacy against POLCO. The procedure:
as §1, §2, §3, §4, §5

The test system of assay [8] is Galium aparine (GALAP). In words: greenhouse post-emergence herbicidal efficacy against GALAP. The procedure:
as §1, §2, §3, §4, §5

Setting [9] is: 14 days after application, 80 g of a.i./ha.
[10] abbreviates: 21 days after application, g of a.i./ha: A2-1 12.5, fluroxypyr 80.
Setting [11] is: 21 days after application, g of a.i./ha: A2-1 50, fluroxypyr 80.
[12] abbreviates: 14 days after application, 20 g of a.i./ha.
Where [13] appears, read: 21 days after application, g of a.i./ha: A2-1 12.5, fluroxypyr 20.
[14] abbreviates: 21 days after application, g of a.i./ha: A2-1 50, fluroxypyr 20.
[15] abbreviates: 14 days after application, 320 g of a.i./ha.
Setting [16] is: 21 days after application, g of a.i./ha: A1-36 2.5, flurtamone 80.
Where [17] appears, read: 21 days after application, g of a.i./ha: A1-36 2.5, flurtamone 320.
The mark [18] stands for this setting: 21 days after application, g of a.i./ha: A1-36 10, flurtamone 80.
Setting [19] is: 21 days after application, g of a.i./ha: A1-36 10, flurtamone 320.
Where [20] appears, read: 14 days after application, g of a.i./ha: A1-7 2.5, saflufenacil 2.
The mark [21] stands for this setting: 21 days after application, g of a.i./ha: A1-7 10, saflufenacil 8.
[22] abbreviates: 14 days after application, g of a.i./ha: A1-7 2.5, saflufenacil 8.

Regarding `Nc1c(Cl)c(F)nc(OCC(=O)O)c1Cl` [fluroxypyr], the Efficacy in assay [1] (setting [9]), in assay [1] (setting [10]), in assay [1] (setting [11]), in assay [2] (setting [9]), in assay [2] (setting [11]) and in assay [3] (setting [9]) was 0% in each case. Moreover, the Efficacy in assay [3] (setting [11]) was found to be 0%; in assay [4] (setting [9]) it was 15%; in assay [4] (setting [10]) it was 0%; in assay [4] (setting [11]) it was 0%; in assay [5] (setting [12]), 0%; in assay [5] (setting [13]) it was 0%. Further, the Efficacy in assay [5] (setting [10]) worked out at 10%; in assay [6] (setting [13]), 20%; in assay [6] (setting [10]), 50%; in assay [6] (setting [14]), 20%; in assay [6] (setting [11]), 50%; in assay [7] (setting [12]), 70%. Also, the Efficacy in assay [7] (setting [13]) and in assay [7] (setting [14]) was 80% each time.
In the case of `CNC1=C(c2cccc(C(F)(F)F)c2)C(=O)C(c2ccccc2)O1` (centres unmarked) [flurtamone], the Efficacy turned out to be 0% in assay [1] (setting [9]); 15% in assay [1] (setting [15]); 0% in assay [1] (setting [16]); 0% in assay [1] (setting [17]); 0% in assay [1] (setting [18]); 0% in assay [1] (setting [19]). The Efficacy in assay [2] (setting [9]) turned out to be 0%; in assay [2] (setting [15]), 10%; in assay [2] (setting [16]) it was 0%; in assay [2] (setting [17]), 10%; in assay [3] (setting [9]) it was 30%; in assay [3] (setting [18]), 20%. The Efficacy turned out to be 40% in assay [4] (setting [9]); 50% in assay [4] (setting [15]); 40% in assay [4] (setting [18]); 40% in assay [8] (setting [9]); 80% in assay [8] (setting [15]); 0% in assay [8] (setting [16]). The Efficacy in assay [8] (setting [18]) was 0%; in assay [8] (setting [19]), 70%; in assay [6] (setting [9]), 50%; in assay [6] (setting [15]), 50%; in assay [6] (setting [16]), 25%; in assay [6] (setting [17]) it was 30%. Also, the Efficacy in assay [6] (setting [18]) was 25%; in assay [6] (setting [19]), 30%; in assay [7] (setting [9]), 50%; in assay [7] (setting [15]), 30%; in assay [7] (setting [18]) it was 0%; in assay [7] (setting [19]) it was 30%.
As to `CC(C)N(C)S(=O)(=O)NC(=O)c1cc(-n2c(=O)cc(C(F)(F)F)n(C)c2=O)c(F)cc1Cl` [saflufenacil], the Efficacy was 0% in assay [1] (setting [20]); 5% in assay [2] (setting [21]); 0% in assay [3] (setting [20]); 10% in assay [3] (setting [22]); 0% in assay [7] (setting [20]); 10% in assay [7] (setting [22]). Also, the Efficacy is reported as 0% in assay [7] (14 days after application, g of a.i./ha: A1-7 10, saflufenacil 2); 10% in assay [7] (14 days after application, g of a.i./ha: A1-7 10, saflufenacil 8); 0% in assay [7] (21 days after application, g of a.i./ha: A1-7 2.5, saflufenacil 2); 0% in assay [7] (21 days after application, g of a.i./ha: A1-7 2.5, saflufenacil 8); 0% in assay [7] (21 days after application, g of a.i./ha: A1-7 10, saflufenacil 2); 0% in assay [7] (setting [21]).
